Reference: patent US20060014723A1, “Anti-parasitic uses of borinic acid complexes” (priority 2004, published 2006)
Values after ≈ are worked out from the molar mass of the structure shown.

What was measured:
[1] = system: Trypanosoma cruzi Tulahuen C2C4 strain; test: Chagas disease in vitro screening model (beta-galactosidase strain in L-6 cells); assay type: cell-based; settings: for IC50: Trypanosoma cruzi, TULAHUEN, L6, read-out: T. cruzi IC50
Method: Trypanosoma cruzi Tulahuen C2C4 strain, containing the β-galactosidase (Lac Z) gene (Buckner et al., Antimicrob. Agents Chemother 40:2592-2597, 1996) is used for this study.
The infective amastigote and trypomastigote stages are cultivated in L-6 cells (a rat skeletal myoblast cell line) in RPMI 1640 medium supplemented with 2 mM L-glutamine and 10% heat-inactivated fetal bovine serum in 12.5 cm^2 tissue culture flasks. Amastigotes develop intracellularly, differentiate into trypomastigotes, and leave the host cell. These trypomastigotes infect new L-6 cells and are the stages used to initiate an infection in the assay. All cultures and assays are conducted at 37° C. under an atmosphere of 5% CO2 in air.
(§1) After use the stocks are kept at −20° C. For the assays, the compound is further diluted to the appropriate concentration using complete medium.
Assays are performed in sterile 96-well microtiter plates, each well containing 100 μl medium with 2×10^3 L-6 cells. After 24 hours, […] of a trypanosome suspension containing 5×10^3 trypomastigote bloodstream forms from culture are added to the wells. Forty-eight hours later, the medium is removed from the wells and replaced by […] fresh medium, with or without a serial drug dilution. At this point the L-6 cells should be infected with amastigotes and no free trypomastigotes should be in the medium. Seven 3-fold drug dilutions are used, covering a range from 90 μg/mL to 0.123 μg/mL. Each drug is tested in duplicate. Active compounds are tested twice for confirmation. After 96 hours of incubation the plates are inspected under an inverted microscope to assure growth of the controls and sterility.
Then the substrate CPRG/Nonidet (50 μl) is added to all wells. A colour reaction will become visible within 2-6 hours and can be read photometrically at 540 nm. Data are transferred into a graphics program (e.g., EXCEL), sigmoidal inhibition curves determined and IC50 values calculated.

[2] = system: T. b. rhodesiense STIB 900; test: African sleeping sickness in vitro screening model (Alamar Blue); assay type: cell-based, Trypanosoma brucei rhodesiense; settings: for IC50: Trypanosoma brucei
Method: Bloodstream from trypomastigotes of the strains (a) and (c) are maintained in Minimal Essential Medium (MEM) with Earle's salts supplemented according to Baltz, et al., (EMBO J. 4:1273-1277, 1985) with 25 mM N-2-hydroxyethylpiperazine-N′-2-ethane-sulphonic acid (HEPES), 1 g/L additional glucose, 1% MEM non-essential amino acids (100×), 0.2 mM 2-mercaptoethanol, 2 mM sodium pyruvate, 0.1 mM hypoxanthine and 15% heat-inactivated horse serum.
All cultures and assays are conducted at 37° C. under an atmosphere of 5% CO2 in air.
(§2) After use the stocks are kept at −20° C. For the assays, the compound is further diluted in serum-free culture medium and finally to the appropriate concentration in complete medium without hypoxanthine.
Assays are performed in 96-well microtiter plates, each well containing 100 μL of culture medium with 8×10^3 bloodstream forms with or without a serial drug dilution. The highest concentration for the test compounds is 90 μg/mL. Seven 3-fold drug dilutions are used, covering a range from 90 μg/mL to 0.123 μg/mL. Each drug is tested in duplicate. Active compounds are tested twice for confirmation. The final result is the mean of the four individual IC50 values. After 72 hrs of incubation, the plates are inspected under an inverted microscope to assure growth of the controls and sterile conditions.
(§3) Ten μL of Alamar Blue (12.5 mg resazurin dissolved in 100 mL distilled water) are now added to each well and the plates are incubated for another 2 hours. Then the plates are read with a Spectramax GEMINI XS microplate fluorometer (Molecular Devices Cooperation, Sunnyvale, Calif., USA) using an excitation wavelength of 536 nm and an emission wave length of 588 nm.
IC50 values are determined using the microplate reader software Softmax Pro (Molecular Devices Cooperation, Sunnyvale, Calif., USA).

[3] = system: Leishmania donovani strain MHOM/ET1671L82; test: Leishmaniasis in vitro screening model (axenic amastigotes, Alamar Blue); assay type: cell-based; settings: for IC50: Leishmania donovani, read-out: L. donovani IC50
Method: The Leishmania donovani strain MHOM/ET1671L82 (obtained from Dr. S. Croft, London School of Hygiene and Tropical Medicine) is used. The strain is maintained in the Syrian Golden hamster. Amastigotes are collected from the spleen of an infected hamster. Amastigotes are grown in axenic culture at 37° C. in SM medium (Cunningham I., J. Protozoal. 24:325-329, 1977) at pH 5.4 supplemented with 10% heat-inactivated fetal bovine serum (FBS) under an atmosphere of 5% CO2 in air.
as §1
Assays are performed in 96-well flat-bottom microtiter plates (Costar, Corning Inc.), each well containing 100 μl of culture medium with 105 amastigotes from axenic culture with or without a serial drug dilution. Concentration of amastigotes is determined in a CASY cell analyzing system (Scharfe System, Reutlingen, Germany). Before the amastigotes are counted, the parasite culture is passed twice through a 22-gauge needle to break up clusters of amastigotes.
The highest concentration for the test compounds is 90 μg/mL. Seven 3-fold dilutions are used, covering a range from […]. Each drug is tested in duplicate. Active compounds are tested twice for confirmation. After 72 hours of incubation, the plates are inspected under an inverted microscope to assure growth of the controls and sterile conditions.
as §3, with “then” for “now”, “wave length” for “wavelength”
Data are analyzed using the microplate reader software Softmax Pro (Molecular Devices Cooperation, Sunnyvale, Calif., USA). Decrease of fluorescence (i.e. inhibition) is expressed as percentage of the fluorescence of control cultures and plotted against the drug concentrations. The IC50 value is calculated from the sigmoidal inhibition curve by the software program.

P. falciparum K1 = test: Malaria in vitro screening model (3H-hypoxanthine incorporation); assay type: cell-based, Plasmodium falciparum; settings: for IC50: Plasmodium falciparum, K1
Method: […] P. falciparum K1 is used in this study. K1 (a clone originating from Thailand) is resistant to chloroquine and pyrimethamine. The strains are maintained in RPMI 1640 medium with 0.36 mM hypoxanthine, supplemented with 25 mM N 2-hydroxyethyipiperazine-N-2-ethane-sulphonic acid (HEPES), 25 mM NaHCO3, neomycin (100 U/mL) and 5 g/L of ALBUMAX® II (lipid-rich bovine serum albumin, GIBCO, Grand Island, N.Y., USA), together with 5% washed human A+ erythrocytes. All cultures and assays are conducted at 37° C. under an atmosphere of 4% CO2, 3% O2 and 93% N2. Cultures are kept in incubation chambers filled with the gas mixture. Subcultures are diluted to a parasitemia of between 0.1 and 0.5% and the medium is changed daily.
Antimalarial activity is assessed using an adaptation of the procedures described by Desjardins et al. (Antimicrob. Agents Chemother. 16:710-718, 1979), and Matile and Pink (In: Lefkovits, I. and Pernis, B. (Eds.), Immunological Methods Vol. IV, Academic Press, San Diego, pp. 221-234, 1990).
as §2, with “Stock drug solutions are prepared in 100% dimethylsulfoxide (DMSO) at 10 mg/mL, and heated or sonicated if necessary to dissolve the sample. After” for “After”, “use,” for “use”
Assays are performed in sterile 96-well microtiter plates, each well containing 200 μl of parasite culture (0.15% parasitemia, 2.5% hematocrit) with or without serial drug solutions. Seven 2-fold dilutions are used, covering a range from […] to 0.078 μg/mL. For active compounds the highest concentration is lowered (e.g., to […]); for plant extracts the highest concentration is increased to 50 μg/mL. […] After 48 hours of incubation at 37° C., 0.5 μCi ^3H-hypoxanthine is added to each well. Cultures are incubated for a further 24 h before being harvested onto glass-fiber filters and washed with distilled water. The radioactivity is counted using a Betaplate liquid scintillation counter (Wallac, Zurich, Switzerland). The results are recorded as counts per minute per well at each drug concentration and expressed as percentage of the untreated controls. IC50 values are calculated from the sigmoidal inhibition curves using Microsoft EXCEL.

SMILES	IC50 [1] [µg/mL]	IC50 [2] [µg/mL]	IC50 [3] [µg/mL]	IC50 (P. falciparum K1) [µg/mL]	T. cruzi IC50 [1] [µg/mL]	T. b. rhodesiense IC50 [2] [µg/mL]	L. donovani IC50 [3] [µg/mL]	P. falciparum IC50 (P. falciparum K1) [µg/mL]
N#Cc1ccc(B(Oc2cccc3cccnc23)c2ccc(F)cc2)cc1 [Compound 22, (4-Cyanophenyl)(4-fluorophenyl)borinic acid quinolin-8-yl ester]	0.845 (≈ 2.4 µM)	0.325 (≈ 0.923 µM)	0.34 (≈ 0.965 µM)	1.46 (≈ 4.15 µM)				
Fc1cc(B(Oc2cccc3cccnc23)c2cccc(Cl)c2)cc(C(F)(F)F)c1 [Compound 123]					4	0.31	0.54	3.51
CS(=O)(=O)Nc1ccc(B(Oc2cccc3cccnc23)c2cccc(Cl)c2)cc1 [Compound 108]					4.95	0.305	0.59	2.417
Fc1ccc(F)c(B(Oc2cccc3cccnc23)c2ccc(Cl)cc2)c1 [Compound 40, (4-Chlorophenyl)(2,5-difluorophenyl)borinic acid quinolin-8-yl ester]	0.89 (≈ 2.34 µM)	0.295 (≈ 0.777 µM)	0.59 (≈ 1.55 µM)	1.72 (≈ 4.53 µM)				
N#Cc1cccc(B(Oc2cccc3cccnc23)c2cc(F)ccc2F)c1 [Compound 32, (3-Cyanophenyl)(2,5-difluorophenyl)borinic acid quinolin-8-yl ester]	0.73 (≈ 1.97 µM)	0.41 (≈ 1.11 µM)	0.41 (≈ 1.11 µM)	1.82 (≈ 4.92 µM)				
Cc1cc(B(Oc2cccc3cccnc23)c2cccc(C#N)c2)ccc1Cl [Compound 31, (4-Chloro-3-methylphenyl)(3-cyanophenyl)borinic acid quinolin-8-yl ester]	0.79 (≈ 2.06 µM)	0.28 (≈ 0.732 µM)	0.83 (≈ 2.17 µM)	1.83 (≈ 4.78 µM)				
CSc1cccc(B(Oc2cccc3cccnc23)c2cccc(SC)c2)c1 [Compound 87]					3.2	0.3	0.39	4.632
Cc1cc(B(Oc2cccc3cccnc23)c2ccc(C#N)cc2)ccc1Cl [Compound 34, (4-Chloro-3-methylphenyl)(4-cyanophenyl)borinic acid quinolin-8-yl ester]	0.82 (≈ 2.14 µM)	0.23 (≈ 0.601 µM)	0.07 (≈ 0.183 µM)	1.39 (≈ 3.63 µM)				
COc1ccc(B(Oc2cccc3cccnc23)c2ccc(Cl)cc2)cc1F [Compound 41, (4-Chlorophenyl)(3-fluoro-4-methoxyphenyl)borinic acid quinolin-8-yl ester]	0.935 (≈ 2.39 µM)	0.38 (≈ 0.97 µM)	0.29 (≈ 0.74 µM)	1.63 (≈ 4.16 µM)				
N#Cc1ccc(B(Oc2cccc3cccnc23)c2ccc(F)c(F)c2)cc1 [Compound 97]					3.45	0.37	0.58	4.036
N#Cc1ccc(B(Oc2cccc3cccnc23)c2cccc(Cl)c2)cc1 [Compound 26, (3-Chlorophenyl)(4-cyanophenyl)borinic acid quinolin-8-yl ester]		0.29 (≈ 0.787 µM)	0.41 (≈ 1.11 µM)	1.4 (≈ 3.8 µM)		0.21	0.55	1.44
Fc1ccc(B(Oc2cccc3cccnc23)c2cccc(Cl)c2)cc1 [Compound 14, (3-Chlorophenyl)(4-fluorophenyl)borinic acid quinolin-8-yl ester]		0.5 (≈ 1.38 µM)	0.37 (≈ 1.02 µM)	1.9 (≈ 5.25 µM)		0.28	0.48	1.93
Cc1cc(Cl)ccc1B(OC(=O)c1ncccc1O)c1ccc(Cl)cc1C [Compound 134]					3.6	1.7	0.12	
Cc1cc(C)c2cccnc2c1OB(c1ccc(F)cc1)c1ccc(Cl)cc1 [Compound 91]					4.3	0.36	0.94	
C=CB(Oc1cccc2cccnc12)c1ccc(OC)nc1 [Compound 100]					3.8	0.305	0.33	
N#Cc1cccc(B(Oc2cccc3cccnc23)c2ccc(F)c(F)c2)c1 [Compound 95]					2.95	0.435	0.61	
CC1CCN(S(=O)(=O)c2ccc(B(Oc3cccc4cccnc34)c3ccc(Cl)cc3)cc2)CC1 [Compound 111]					4.15	0.552	0.74	
